System: T98 cells
Assay: BOOM conversion: prodrug + Pd0-resins in cell culture, cell viability, T98
Format: cell-based, human
Conditions: Homo sapiens, 120 h, prodrug in combination with Pd0-resins 1 mg/mL, 5 days, read-out: EC50, prodrug + Pd-resins
Experimental: Following 5 days treatment, cells were incubated with PrestoBlue™ Cell Viability Reagent (Life Technologies) for 60-90 min. Fluorescence intensity values were related to the untreated cells (100% cell viability). […] Cells incubated in 0.1% (v/v) DMSO in media were used as untreated cell control.
Cell viabilities for each prodrug provided as a combination with palladium is presented in FIG. 7 in the right of each set of two bars. Data for prodrug in the absence of palladium catalyst is also provided (the left bar of each set of two bars) for comparison along with negative controls (from left to right: DMSO, Pd^0 and Doxorubicin). Cells were incubated in tissue culture media containing 0.1% (v/v) DMSO and: Pd^0-resins (1 mg/mL, negative control); 1 μM of each prodrug (negative control); and Pd^0-resins (1 mg/mL)+1 μM of each prodrug (BOOM reaction assay). Cells incubated in 0.1% (v/v) DMSO in media were used as untreated cell control.
Following 5 days treatment, cells were incubated with PrestoBlue™ Cell Viability Reagent (Life Technologies) for 90 min. Fluorescence intensity values were related to the untreated cells (100% cell viability). Data are provided in FIG. 8 for cells incubated in tissue culture media containing 0.1% (v/v) DMSO and: Pd^0-resins (1 mg/mL, negative control); 0.3-3 μM of Doxorubicin prodrug for A549 and DU145 cell lines, 0.1-1 μM of Doxorubicin prodrug for T98 cell line (negative control); 0.3-3 μM of Doxorubicin for A549 and DU145 cell lines, 0.1-1 μM of Doxorubicin for T98 cell line (positive control); and Pd^0-resin (1 mg/mL)+Doxorubicin prodrug (BOOM reaction assay). Cells incubated in 0.1% (v/v) DMSO in media were used as untreated cell control.
The toxigenic effect as a result of in situ generation of parental drug in cell culture was determined by incubating all cells in tissue culture media containing 0.1% (v/v) DMSO and a) Pd^0, Au, or Pd/Au-resin (1 mg/mL for all cells tested, negative control); b) prodrug (negative control); or c) Pd^0, Au, or Pd/Au-resin (1 mg/mL for all cells)+prodrug (reaction assay). Cells incubated in 0.1% (v/v) DMSO in media was used as an untreated cell reference standard (100% viability). A PrestoBlue® cell viability assay as described above was carried out and fluorescent intensities compared to the untreated cell control.
A dose response study was performed for each cell line keeping the quantity of Pd^0 resin constant (0.8 mg/mL for U87G and 1 mg/mL for the rest of cell lines). All cells were plated in Dulbecco's Modified Eagle Media (DMEM) supplemented with serum (10% FBS) and L-glutamine (2 mM). […]

C#CCOc1ccc(CONC(=O)CCCCCCC(=O)Nc2ccccc2)cc1 [POB-Vor, Propargyloxybenzyl-Vorinostat]
EC50: 16.8 µM

Source: patent publication US20200289554A1, “BIOORTHOGONAL COMPOUNDS COMPRISING A PROPARGYL GROUP FOR TREATING CANCER” (THE UNIVERSITY COURT OF THE UNIVERSITY OF EDINBURGH, priority 2016, published 2020)
